# Laboratory results: patent US20240101549A1, “N-(2-(4-CYANOTHIAZOLIDIN-3-YL)-2-OXOETHYL)-QUINOLINE-4-CARBOXAMIDES” (AstraZeneca AB, priority 2020, published 2024)
# Where two headings read alike, the source gives them in different places.
# Experiments:
# [1] = Metabolic stability in human liver microsomes (HLM); assay type: in vitro ADME; details: n = 1 or average of n = 2-3
# Experimental: Metabolic stability in HLM was measured as described in J Comput Aided Mol Des 2015, 29, 795.
# Rat Hepatocytes (rHep) = test: Metabolic stability in rat hepatocytes (rHep); assay type: in vitro ADME; details: n = 1 or geometric mean of n = 2-3
# Caco-2 cell permeability = assay type: in vitro ADME; details: human
# Experimental: (§1) Caco-2 cell permeability was measured as described in Mol Pharm 2017, 14, 1601.
# Kinetic solubility = assay type: physicochemical; details: kinetic from dmso stock
# Experimental: Kinetic solubility was measured as described in Comput Aided Mol Des 2015, 29, 795.
# FAP = FAP (Macaca fascicularis, UniProt A0A2K5VGH4); test: FAP plasma inhibition assay, cynomolgus plasma; assay type: biochemical; details: cynomolgus plasma diluted 1:40, 75 μM Ala-Pro-AMC; n = 1; read-out: FAP Cyno Plasma IC50
# FAP, sequence (A0A2K5VGH4 entry or part of it): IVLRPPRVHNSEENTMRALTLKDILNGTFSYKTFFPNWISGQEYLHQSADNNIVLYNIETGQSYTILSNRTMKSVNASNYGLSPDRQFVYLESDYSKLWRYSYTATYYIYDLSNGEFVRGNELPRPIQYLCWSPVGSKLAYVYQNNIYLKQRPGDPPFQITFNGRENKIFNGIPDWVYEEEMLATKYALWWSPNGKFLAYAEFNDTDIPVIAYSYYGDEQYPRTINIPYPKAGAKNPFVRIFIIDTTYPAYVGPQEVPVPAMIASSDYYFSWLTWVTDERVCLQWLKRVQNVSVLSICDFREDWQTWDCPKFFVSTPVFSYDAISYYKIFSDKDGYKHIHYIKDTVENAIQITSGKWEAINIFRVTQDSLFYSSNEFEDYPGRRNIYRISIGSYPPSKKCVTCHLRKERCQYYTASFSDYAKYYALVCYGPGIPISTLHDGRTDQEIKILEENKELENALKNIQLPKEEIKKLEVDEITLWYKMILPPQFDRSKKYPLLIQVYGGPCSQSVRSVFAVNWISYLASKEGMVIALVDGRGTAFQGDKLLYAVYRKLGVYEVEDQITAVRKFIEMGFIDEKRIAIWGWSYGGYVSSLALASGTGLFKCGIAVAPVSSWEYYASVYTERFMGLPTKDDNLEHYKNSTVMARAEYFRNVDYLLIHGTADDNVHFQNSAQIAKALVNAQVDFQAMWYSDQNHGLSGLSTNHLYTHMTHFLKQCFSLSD
# Experimental: D. FAP Plasma Inhibition Assay This assay was adapted from the method described in Example 237 for detection of FAP target engagement enzyme activity in plasma. […] Compounds were tested using 10 CR, 3 fold dilution series from 500 nM FAC. Two replicates for each assay point were run on the same plate. A fluorescence blank read was taken before substrate addition. […] Plates were incubated for 40 min at rt in the dark. […] IC50 values were determined by plotting % inhibition versus log compound concentration.
# Caco-2 cell = Caco-2 cell permeability; assay type: in vitro ADME; details: bidirectional (ABBA); for Caco2 Bidirectional (ABBA) A to B Papp / Caco2 Bidirectional (ABBA) B to A Papp: n = 1 or average of n = 2-4
# Experimental: as §1
# [2] = Caco-2, AB intrinsic, n = 1 or average of n = 2-4, read-out: Caco2 AB Intrinsic Papp
smiles,measurement,setting,value
"COC1CCCN(c2ccc3nccc(C(=O)NCC(=O)N4CSC[C@H]4C#N)c3c2)C1 (mixture of isomers) [Example 41, N-(2-((R)-4-Cyanothiazolidin-3-yl)-2-oxoethyl)-6-((RS)-3-methoxypiperidin-1-yl)quinoline-4-carboxamide]",microsomal CLint,[1],30 µL/min/mg
same,rHep CLint,Rat Hepatocytes (rHep),12 μL/min/1E6
same,Papp A→B,Caco-2 cell permeability; [2],16 ×10⁻⁶ cm/s
"CC1CC(F)(F)CCN1c1ccc2nccc(C(=O)NCC(=O)N3CSC[C@H]3C#N)c2c1 (mixture of isomers) [Example 44, N-(2-((R)-4-Cyanothiazolidin-3-yl)-2-oxoethyl)-6-((RS)-4,4-difluoro-2-methylpiperidin-1-yl)quinoline-4-carboxamide]",rHep CLint,Rat Hepatocytes (rHep),160 μL/min/1E6
"CC1N(c2ccc3nccc(C(=O)NCC(=O)N4CSC[C@H]4C#N)c3c2)CC1(F)F (mixture of isomers) [Example 159, N-(2-((R)-4-Cyanothiazolidin-3-yl)-2-oxoethyl)-6-((RS)-3,3-difluoro-2-methylazetidin-1-yl)quinoline-4-carboxamide]",rHep CLint,Rat Hepatocytes (rHep),47 μL/min/1E6
N#C[C@@H]1CSCN1C(=O)CNC(=O)c1ccnc2ccc(-c3ccnn3C3CCCCO3)cc12 (mixture of isomers) [Example 176],rHep CLint,Rat Hepatocytes (rHep),15 μL/min/1E6
same,solubility,Kinetic solubility,800 µM
"CC1(F)CCN(c2ccc3nccc(C(=O)NCC(=O)N4CSC[C@H]4C#N)c3c2)C1 (mixture of isomers) [Example 198, N-(2-((R)-4-Cyanothiazolidin-3-yl)-2-oxoethyl)-6-((RS)-3-fluoro-3-methylpyrrolidin-1-yl)quinoline-4-carboxamide]",microsomal CLint,[1],20 µL/min/mg
same,rHep CLint,Rat Hepatocytes (rHep),22 μL/min/1E6
"N#C[C@@H]1CSCN1C(=O)CNC(=O)c1ccnc2ccc(N3CCOCC3C(F)(F)F)cc12 (single isomer, unassigned) [Example 84, N-(2-((R)-4-Cyanothiazolidin-3-yl)-2-oxoethyl)-6-((R*)-3-(trifluoromethyl)-morpholino)quinoline-4-carboxamide]",rHep CLint,Rat Hepatocytes (rHep),26 μL/min/1E6
"N#C[C@@H]1CSCN1C(=O)CNC(=O)c1ccnc2ccc(N3CCOCC3C(F)(F)F)cc12 (single isomer, unassigned) [Example 85, N-(2-((R)-4-Cyanothiazolidin-3-yl)-2-oxoethyl)-6-((R*)-3-(trifluoromethyl)-morpholino)quinoline-4-carboxamide]",rHep CLint,Rat Hepatocytes (rHep),35 μL/min/1E6
same,solubility,Kinetic solubility,800 µM
"N#C[C@@H]1CSCN1C(=O)CNC(=O)c1ccnc2ccc(N3CCCC3C3CC3)cc12 (single isomer, unassigned) [Example 199, N-(2-((R)-4-Cyanothiazolidin-3-yl)-2-oxoethyl)-6-((R*)-2-cyclopropyl-pyrrolidin-1-yl)quinoline-4-carboxamide]",microsomal CLint,[1],> 300 µL/min/mg
same,rHep CLint,Rat Hepatocytes (rHep),250 μL/min/1E6
"N#C[C@@H]1CSCN1C(=O)CNC(=O)c1ccnc2ccc(N3CCCC3C3CC3)cc12 (single isomer, unassigned) [Example 200, N-(2-((R)-4-Cyanothiazolidin-3-yl)-2-oxoethyl)-6-((R*)-2-cyclopropyl-pyrrolidin-1-yl)quinoline-4-carboxamide]",HLM CLint,[1],>300 µL/min/mg
same,rHep CLint,Rat Hepatocytes (rHep),>300 μL/min/1E6
"CC1CCN(c2ccc3nccc(C(=O)NCC(=O)N4CSC[C@H]4C#N)c3c2)C1=O (single isomer, unassigned) [Example 202, N-(2-((R)-4-Cyanothiazolidin-3-yl)-2-oxoethyl)-6-((R*)-3-methyl-2-oxopyrrolidin-1-yl)quinoline-4-carboxamide]",rHep CLint,Rat Hepatocytes (rHep),<1 μL/min/1E6
"CC1CCCN(c2ccc3nccc(C(=O)NCC(=O)N4CSC[C@H]4C#N)c3c2)C1=O (single isomer, unassigned) [Example 203, N-(2-((R)-4-Cyanothiazolidin-3-yl)-2-oxoethyl)-6-((R*)-3-methyl-2-oxopiperidin-1-yl)quinoline-4-carboxamide]",rHep CLint,Rat Hepatocytes (rHep),2.9 μL/min/1E6
same,Papp A→B,"Caco-2 cell permeability; Caco-2, bidirectional (ABBA), A to B, n = 1 or average of n = 2-4, read-out: Caco2 Bidirectional (ABBA) A to B Papp",0.4 ×10⁻⁶ cm/s
same,Papp B→A,"Caco-2 cell permeability; Caco-2, bidirectional (ABBA), B to A, n = 1 or average of n = 2-4, read-out: Caco2 Bidirectional (ABBA) B to A Papp",8 ×10⁻⁶ cm/s
same,efflux ratio,"Caco-2 cell permeability; Caco-2, bidirectional (ABBA), read-out: Caco2 Bidirectional (ABBA) Efflux Ratio",20
"CC1CCCN(c2ccc3nccc(C(=O)NCC(=O)N4CSC[C@H]4C#N)c3c2)C1=O (single isomer, unassigned) [Example 204, N-(2-((R)-4-Cyanothiazolidin-3-yl)-2-oxoethyl)-6-((R*)-3-methyl-2-oxopiperidin-1-yl)quinoline-4-carboxamide]",microsomal CLint,[1],8 µL/min/mg
same,rHep CLint,Rat Hepatocytes (rHep),1.8 μL/min/1E6
"N#C[C@@H]1CSCN1C(=O)CNC(=O)c1c(F)cnc2ccc(N3CCOCC3)cc12 [Example 2, (R)—N-(2-(4-Cyanothiazolidin-3-yl)-2-oxoethyl)-3-fluoro-6-morpholino-quinoline-4-carboxamide]",IC50,FAP,9.2 nM
same,Papp A→B,Caco-2 cell permeability; [2],23 ×10⁻⁶ cm/s
"N#C[C@@H]1CSCN1C(=O)CNC(=O)c1ccnc2ccc(N3CC4(CCC4)C3)cc12 [Example 17, (R)—N-(2-(4-Cyanothiazolidin-3-yl)-2-oxoethyl)-6-(2-azaspiro[3.3]heptan-2-yl)quinoline-4-carboxamide]",microsomal CLint,[1],48 µL/min/mg
"CC1(C)COC12CN(c1ccc3nccc(C(=O)NCC(=O)N4CSC[C@H]4C#N)c3c1)C2 [Example 18, (R)—N-(2-(4-Cyanothiazolidin-3-yl)-2-oxoethyl)-6-(3,3-dimethyl-1-oxa-6-azaspiro[3.3]heptan-6-yl)quinoline-4-carboxamide]",Papp A→B,Caco-2 cell permeability; [2],13 ×10⁻⁶ cm/s
same,Caco2 Bidirectional (ABBA) Efflux Ratio,Caco-2 cell,34
same,Caco2 Bidirectional (ABBA) A to B Papp,Caco-2 cell,0.90 1E−6 · cm/s
same,Caco2 Bidirectional (ABBA) B to A Papp,Caco-2 cell,31 1E−6 · cm/s
"N#C[C@@H]1CSCN1C(=O)CNC(=O)c1ccnc2ccc(N3CC(C(F)F)C3)cc12 [Example 28, (R)—N-(2-(4-Cyanothiazolidin-3-yl)-2-oxoethyl)-6-(3-(difluoromethyl)-azetidin-1-yl)quinoline-4-carboxamide]",IC50,FAP,0.3 nM
same,Papp A→B,Caco-2 cell permeability; [2],21 ×10⁻⁶ cm/s
"COC1(C)CCN(c2ccc3nccc(C(=O)NCC(=O)N4CSC[C@H]4C#N)c3c2)CC1 [Example 42, (R)—N-(2-(4-Cyanothiazolidin-3-yl)-2-oxoethyl)-6-(4-methoxy-4-methylpiperidin-1-yl)quinoline-4-carboxamide]",solubility,Kinetic solubility,850 µM
"CC1(C)CN(c2ccc3nccc(C(=O)NCC(=O)N4CSC[C@H]4C#N)c3c2)CCO1 [Example 88, (R)—N-(2-(4-Cyanothiazolidin-3-yl)-2-oxoethyl)-6-(2,2-dimethyl-morpholino)quinoline-4-carboxamide]",IC50,FAP,0.2 nM
same,Papp A→B,Caco-2 cell permeability; [2],13 ×10⁻⁶ cm/s
"N#C[C@@H]1CSCN1C(=O)CNC(=O)c1ccnc2ccc(N3C4CCC3COC4)cc12 [Example 98, 6-(3-Oxa-8-azabicyclo[3.2.1]octan-8-yl)-N-(2-((R)-4-cyanothiazolidin-3-yl)-2-oxoethyl)quinoline-4-carboxamide]",IC50,FAP,0.3 nM
same,Papp A→B,Caco-2 cell permeability; [2],8.6 ×10⁻⁶ cm/s
"N#C[C@@H]1CSCN1C(=O)CNC(=O)c1ccnc2ccc(N3CCOC4(CCOCC4)C3)cc12 [Example 99, (R)—N-(2-(4-cyanothiazolidin-3-yl)-2-oxoethyl)-6-(1,9-dioxa-4-azaspiro[5.5]undecan-4-yl)quinoline-4-carboxamide]",Caco2 Bidirectional (ABBA) Efflux Ratio,Caco-2 cell,46
same,Caco2 Bidirectional (ABBA) A to B Papp,Caco-2 cell,0.46 1E−6 · cm/s
same,Caco2 Bidirectional (ABBA) B to A Papp,Caco-2 cell,21 1E−6 · cm/s
"N#C[C@@H]1CSCN1C(=O)CNC(=O)c1ccnc2ccc(N3CC(CF)C3)cc12 [Example 113, (R)—N-(2-(4-Cyanothiazolidin-3-yl)-2-oxoethyl)-6-(3-(fluoromethyl)azetidin-1-yl)quinoline-4-carboxamide]",IC50,FAP,0.4 nM
same,Papp A→B,Caco-2 cell permeability; [2],20 ×10⁻⁶ cm/s
"N#C[C@@H]1CSCN1C(=O)CNC(=O)c1ccnc2ccc(N3CC4(CC(F)C4)C3)cc12 [Example 155, (R)—N-(2-(4-Cyanothiazolidin-3-yl)-2-oxoethyl)-6-(6-fluoro-2-azaspiro[3.3]heptan-2-yl)quinoline-4-carboxamide]",Caco2 Bidirectional (ABBA) Efflux Ratio,Caco-2 cell,6.5
same,Caco2 Bidirectional (ABBA) A to B Papp,Caco-2 cell,4.2 1E−6 · cm/s
same,Caco2 Bidirectional (ABBA) B to A Papp,Caco-2 cell,27 1E−6 · cm/s
"N#C[C@@H]1CSCN1C(=O)CNC(=O)c1ccnc2ccc(N3CC4(COC4)C3)cc12 [Example 166, (R)—N-(2-(4-Cyanothiazolidin-3-yl)-2-oxoethyl)-6-(2-oxa-6-azaspiro[3.3]heptan-6-yl)quinoline-4-carboxamide]",IC50,FAP,0.3 nM
same,Papp A→B,Caco-2 cell permeability; [2],2 ×10⁻⁶ cm/s
same,Caco2 Bidirectional (ABBA) Efflux Ratio,Caco-2 cell,24
same,Caco2 Bidirectional (ABBA) A to B Papp,Caco-2 cell,0.56 1E−6 · cm/s
same,Caco2 Bidirectional (ABBA) B to A Papp,Caco-2 cell,13 1E−6 · cm/s
"CC(=O)N1CC2(C1)CN(c1ccc3nccc(C(=O)NCC(=O)N4CSC[C@H]4C#N)c3c1)C2 [Example 184, (R)-6-(6-Acetyl-2,6-diazaspiro[3.3]heptan-2-yl)-N-(2-(4-cyanothiazolidin-3-yl)-2-oxoethyl)quinoline-4-carboxamide]",IC50,FAP,0.3 nM
same,Papp A→B,Caco-2 cell permeability; [2],0.1 ×10⁻⁶ cm/s
"CC1(CS(C)(=O)=O)CN(c2ccc3nccc(C(=O)NCC(=O)N4CSC[C@H]4C#N)c3c2)C1 [Example 188, (R)—N-(2-(4-Cyanothiazolidin-3-yl)-2-oxoethyl)-6-(3-methyl-3-((methylsulfonyl)methyl)azetidin-1-yl)quinoline-4-carboxamide]",Papp A→B,Caco-2 cell permeability; [2],0.28 ×10⁻⁶ cm/s
